Values of other authors as cited in PubChem BioAssay AID1259409 (Chemical Carcinogenesis Research Information System (CCRIS), 2018).

Test system: rodent chemically induced tumor inhibition, incidence and multiplicity
Assay: CCRIS tumor inhibitor studies
Conditions: for outcome: Carcinogen: SUBCUTANEOUS, Dose [Inhibitor]: 1,2-DIMETHYLHYDRAZINE, 540-73-8, Route [Inhibitor]: 0, 20 UG/ML IN DRINKING WATER 14 HR/D AT NIGHT TIME FOR 6 MO (STUDY DURATION: 6 MO), Dose [Carcinogen]: NONE

For `COc1ccc2[nH]cc(CCNC(C)=O)c2c1`, the “tumour outcome (control, treated, inhibition, significance)” value (Carcinogen: N,N-DIETHYLNITROSAMINE [55-18-5], Dose [Inhibitor]: 400 PPM IN DIET, BEGINNING 1 WK AFTER FINAL CARCINOGEN DOSE, FOR STUDY DURATION (STUDY DURATION: 24 WK), Route [Inhibitor]: ORAL, Species: RAT, Strain/Sex: F344/MALE, Target Tissue: Type of Lesion: LIVER: HEPATOCELLULAR ADENOMA AND CARCINOMA, Dose [Carcinogen]: 100 MG/KG BW, 1/WK FOR 3 WK, Promoter: PHENOBARBITAL [50-06-6]) is given as 24/24 (100%), 15/23 (65%), 35%, p<0.002, the “tumour outcome (control, treated, inhibition, significance)” value (Carcinogen: N,N-DIETHYLNITROSAMINE [55-18-5], Dose [Inhibitor]: 400 PPM IN DIET, BEGINNING 1 WK AFTER FINAL CARCINOGEN DOSE, FOR STUDY DURATION (STUDY DURATION: 24 WK), Route [Inhibitor]: ORAL, Species: RAT, Strain/Sex: F344/MALE, Target Tissue: Type of Lesion: LIVER: HEPATOCELLULAR ADENOMA, Dose [Carcinogen]: 100 MG/KG BW, 1/WK FOR 3 WK, Promoter: PHENOBARBITAL [50-06-6]) is given as 24/24 (100%), 9/23 (39%), 61%, p<0.001 and the “tumour outcome (control, treated, inhibition, significance)” value (Carcinogen: N-METHYL-N-NITROSOUREA [684-93-5], Dose [Inhibitor]: 0, 20 MG/L IN DRINKING WATER 15 HR/D FOR 3 D BEGINNING 2 D PRIOR TO CARCINOGEN DOSE (STUDY DURATION: LIFETIME), Route [Inhibitor]: ORAL, Species: RAT, Strain/Sex: LIO/FEMALE, Target Tissue: Type of Lesion: TUMORS, Dose [Carcinogen]: 50 MG/KG BW ONCE (STUDY DURATION: LIFETIME), Promoter: NONE) is given as 12/24 (50%), 8/23 (34.8%), 30.4%, not significant. For the same compound, the “tumour outcome (control, treated, inhibition, significance)” value (Carcinogen: N-METHYL-N-NITROSOUREA [684-93-5], Dose [Inhibitor]: 8.2 MG IN 20 µL OIL CONCENTRATE BY PIPET AT THE BASE OF THE TONGUE 1X/D FOR 20 WK BEGINNING 11 D POST FIRST CARCINOGEN D, Route [Inhibitor]: ORAL, Species: RAT, Strain/Sex: SPRAGUE-DAWLEY/FEMALE, Target Tissue: Type of Lesion: MAMMARY GLAND: TUMOR, Dose [Carcinogen]: 50 MG/KG BW 1X/WK FOR 2 WK (STUDY DURATION: 22 WK), Promoter: NONE) was 88%, 80%, 9%, not significant, the “tumour outcome (control, treated, inhibition, significance)” value (Carcinogen: N-METHYL-N-NITROSOUREA [684-93-5], Dose [Inhibitor]: 20 UG/ML IN DRINKING WATER 17 HR/D FOR 20 WK BEGINNING 12 D POST FIRST CARCINOGEN DOSE (STUDY DURATION: 22 WK), Route [Inhibitor]: ORAL, Species: RAT, Strain/Sex: SPRAGUE-DAWLEY/FEMALE, Target Tissue: Type of Lesion: MAMMARY GLAND: TUMOR, Dose [Carcinogen]: 50 MG/KG BW 1X/WK FOR 2 WK (STUDY DURATION: 22 WK), Promoter: NONE) was 88%, 61%, 31%, not significant and the “tumour outcome (control, treated, inhibition, significance)” value (Carcinogen: N-METHYL-N-NITROSOUREA [684-93-5], Dose [Inhibitor]: 20 UG/ML IN DRINKING WATER, 17 HR/D BEGINNING 5 D BEFORE FIRST CARCINOGEN DOSE FOR 27 WK (STUDY DURATION: 27 WK), Route [Inhibitor]: ORAL, Species: RAT, Strain/Sex: SPRAGUE-DAWLEY/FEMALE, Target Tissue: Type of Lesion: MAMMARY GLAND: TUMOR, Dose [Carcinogen]: 50 MG/KG BW TWICE ON POSTNATAL DAYS 51 AND 58) was 17/18 (94%), 14/19 (73.7%), 22%, not significant. The “tumour outcome (control, treated, inhibition, significance)” value (Carcinogen: N-METHYL-N-NITROSOUREA, 684-93-5, Dose [Inhibitor]: 0, 4 UG/ML IN DRINKING WATER 17 HR/D STARTING BEFORE CARCINOGEN TREATMENT FOR THE DURATION OF THE STUDY (STUDY DURATION:, Route [Inhibitor]: SUBCUTANEOUSLY, Species: RAT, Strain/Sex: SPRAGUE-DAWLEY/FEMALE, Target Tissue: Type of Lesion: MAMMARY GLAND: TUMOR, Dose [Carcinogen]: 50 MG/KG BW 2/WK FOR 1 WK BW 43-54 POSTNATAL DAYS) was 80%, 65%, 19%, not significant, the “tumour outcome (control, treated, inhibition, significance)” value (Carcinogen: N-METHYL-N-NITROSOUREA, 684-93-5, Dose [Inhibitor]: 0, 20 UG/ML IN DRINKING WATER FOR 17 HR/D FOR THE DURATION OF STUDY (STUDY DURATION: 180 D), Route [Inhibitor]: ORAL, Species: RAT, Strain/Sex: SPRAGUE-DAWLEY/FEMALE, Target Tissue: Type of Lesion: MAMMARY GLAND: TUMOR, Dose [Carcinogen]: 50 MG/G BW ONCE/WK FOR 2 WK BEGINNING 12 D POST INHIBITOR TREATMENT, Promoter: NONE) was 16/20 (80%), 9/16 (56.3%), 30%, not significant and the “tumour outcome (control, treated, inhibition, significance)” value (Carcinogen: NONE USED, Dose [Inhibitor]: 0, 25 UG/MOUSE/D IN DRINKING WATER FROM DAYS 21-45 OF AGE THEN 50 UG/D FOR DURATION OF STUDY (STUDY DURATION: 12 MO), Route [Inhibitor]: ORAL, Species: MOUSE, Strain/Sex: C3H/JAX/FEMALE, Target Tissue: Type of Lesion: MAMMARY GLAND: ADENOCARCINOMA) was 10/16 (63%), 9/39 (23%), 63%, p<0.02. The outcome (Species: RAT, Strain/Sex: LIO/FEMALE, Target Tissue: Type of Lesion: 7/21 (33%), 4/21 (19%), 42%, NOT SIGNIFICANT) was 0.4, 0.2, 50%, not significant, the outcome (Species: RAT, Strain/Sex: LIO/FEMALE, Target Tissue: Type of Lesion: 12/21 (57%), 3/21 (4%), 93%, P<0.01) was 0.8, 0.1, 88%, p<0.01 and the outcome (Species: RAT, Strain/Sex: LIO/FEMALE, Target Tissue: Type of Lesion: 20/21 (95%), 12/21 (57%), 40%, P<0.01) was 2.8, 1.2, 57%, p<0.01.
